These are literature values, as cited in US20240041828A1, “Combination Therapeutics Comprising Nrf2 Agonists and Antivirals for Treating Viral Infections” (The Regents of the University of California, priority 2022, published 2024).

The test system of the series is human mammalian cells. The settings on record: cited from earlier work.

Where a name gives a salt, the structure may show the parent alone. Read-outs that look alike come from different tables or passages of the source.

For `COC(=O)/C=C/C(=O)OC` [DMF, Dimethyl fumarate], the “concentration shown to be physiologically relevant, efficacious and non-cytotoxic” value was 0.1-100 μM. In the case of `COC1=C(OC)C(=O)C(CCCCCCCCCC[P+](c2ccccc2)(c2ccccc2)c2ccccc2)=C(C)C1=O.CS(=O)(=O)[O-]` [Mito-MES, 10-(4,5-dimethoxy-2-methyl-3,6-dioxo-1,4-cyclohexadienyl) decyl triphenylphosphonium methanesulfonate], under “human mammalian cells”, the “concentration shown to be physiologically relevant, efficacious and non-cytotoxic” value was 10-1000 nM.
